Measured values published in patent US10525044B2, “Treatment for chemotherapy-induced peripheral neuropathy” (priority 2013, dated 2020).
Entries after “also recorded” stand apart in the source; their conditions may differ.

Assays:
[1] = tested on: intracellular free calcium; conditions: 5 μM; ischemic condition (19-fold increase); cited from earlier work
[2] = tested on: intramitochondrial ROS in neurons; assay: ROS examination with DHR 123 in neurons; format: cell-based, Sprague-Dawley rats; conditions: 10 μM PAN-811; 100 μM MTX and 25 μM 5-FU; 1 day
Text: Neuronal Cell Culture. […] Since AOs, including vitamin E, vitamin E acetate, superoxide dismutase (SOD), catalase (CAT), and GSH, are additives to culture medium, reduction of AO concentration in culture medium provides an approach to determine the level of OS involvement in a neurotoxic process. In our study, the culture medium was replaced at a 50% ratio with NB plus B27 minus AOs twice at days 7 and 9 to set AO concentrations as 50% and 25%, respectively. […] Cell Insults and Treatments. Determination of concentration for each anticancer drug in our experiments was based on its reported concentration in human cerebral spinal fluid (CSF) in chemotherapy, literature report of its neurotoxicity in culture, and our preliminary in vitro experimental data. […] For ROS examination, the neurons were insulted with both 100 μM of MTX and 25 μM of 5-FU by 15 d.i.v. […] ROS Examination. […] Fluorescence was photographed by using a fluorescentmicroscope and quantified by excitation at 485 nm and emission at 520 nm using a 96-well plate reader (Model 550, Bio-Rad). […] Data were generated from 4-6 replicate wells, expressed as mean±standard deviation (SD), and statistically evaluated at a significance level of 1% with one factor ANOVA or Student's t-test by using software […] […]

[3] = tested on: hydrogen peroxide-induced LDH release; conditions: cited from earlier work
[4] = tested on: staurosporine-induced apoptosis; conditions: cited from earlier work
[5] = tested on: human lung cancer cell line H460; assay: Cell density of H460 cells (phase contrast); format: cell-based
Description: Cancer Cell Culture. The mouse liver cancer cell line BNLT3 (gift of Dr. Jack Wands, Brown University) and the human lung cancer cell line H460 (ATCC) were seeded into 96-well plates at a density of 4,000 cells/well and cultured at 37° C., 5% CO2, in DMEM (11965, Gibco) supplemented with 10% fetal bovine serum, 20 mM HEPES, 1 mM sodium pyruvate, and […] gentamycin (all reagents came from Gibco).
Cell Insults and Treatments. Determination of concentration for each anticancer drug in our experiments was based on its reported concentration in human cerebral spinal fluid (CSF) in chemotherapy, literature report of its neurotoxicity in culture, and our preliminary in vitro experimental data. At 13 d.i.v., the neuronal cell cultures were insulted with 100 μM of MTX (M9929, Sigma), 25 μM of 5-FU (F6627, Sigma), or 3.5 μM of CDDP (sc-200896, Santa Cruz) for 3 days in absence or presence of PAN 811.Cl.H2O. For ROS examination, the neurons were insulted with both 100 μM of MTX and 25 μM of 5-FU by 15 d.i.v. PAN-811.Cl.H2O was added to cultures to final concentrations of 1.25, 2.5, 5, and 10 μM at the same time as addition of the anticancer drugs. For cancer cell lines, the cells were insulted by the second day of cell seeding with the same concentration of MTX, 5-FU, or CDDP as used in neuronal culture in the absence or presence of 10 μM PAN-811.Cl.H2O for another 3 days.
Quantitative Assays and Morphological Assessment. Cell membrane integrity and mitochondrial function of either neurons or cancer cells were measured with LDH and 3-(4,5-dimethylthiazol-2-yl)-5-(3-carboxymethoxyphenyl)-2-(4-sulfophenyl)-2H-tetrazolium [MTS] analyses, respectively. The latter has been used to quantify cell survival. For the LDH assay, a mixture of a 35 μL aliquot of culture supernatant and 17.5 μL of Mixed Substrate, Enzyme and Dye Solutions (Sigma) was incubated at room temperature (RT) for 30 minutes. For the MTS assay, 10 μL of MTS reagent (Promega) was added to a culture well containing neurons in 50 μL of medium. The preparations were incubated at 37° C. for 2 hours. The preparations for both assays were then spectrophotometrically measured at 490 nm using a 96-well plate reader (Mode 550, Bio-Rad). Neuronal cell death was morphologically determined based on the integrity of the cell soma and continuity of neuronal processes. The change in number of cancer cells was judged directly by cell density. Cells were photographed under an inverted phase contrast microscope (IX 70, Olympus) using 10× or 20× objective.

rat, arterial occlusion = conditions: i.c.v., 50 μg per rat at 1 h after arterial occlusion; cited from earlier work
sodium channel = conditions: cited from earlier work
[6] = tested on: hypoxia-induced neuronal cell death; conditions: 1.2 μM; cited from earlier work
cultured neuronal cells = conditions: cited from earlier work

Structure (SMILES): NC(=S)N/N=C/c1ncccc1N [PAN-811, 3-aminopyridine-2-carboxaldehyde thiosemicarbazone]
- reduction of elevated intracellular free calcium [1]: 72%
- suppression rate of increased ROS (DHR123) [2]: 62.3%
- suppression of hydrogen peroxide-induced LDH release ([3]; 1 μM, vs untreated/H2O2-insulted group): 78%
- suppression of hydrogen peroxide-induced LDH release, maximal protection ([3]; 10 μM, vs untreated and H2O2-insulted group): 90%
- EC50 ([3]; read-out: EC50, protection against hydrogen peroxide-induced LDH release): ~550 nM
- staurosporine-induced apoptosis [4]: prevents
- cell density, cotreatment with CDDP ([5]; 3.5 μM CDDP and 10 μM PAN-811, 3 days): greatly decreased the cell density
- cell density, cotreatment with 5-FU ([5]; 25 μM 5-FU and 10 μM PAN-811, 3 days): robustly decreased the cell density
- cell density, cotreatment with MTX ([5]; 100 μM MTX and 10 μM PAN-811, 3 days): robustly decreased the cell density
- cell density ([5]; each agent alone, 3 days: MTX 100 μM, 5-FU 25 μM, CDDP 3.5 μM, PAN-811 10 μM): robustly decreased the cell density; also recorded: greatly decreased the cell density
- reduction of infarct volume (rat, arterial occlusion): 59%
- veratridine-induced sodium channel opening related to Ca2+ influx (sodium channel): prevents
- hypoxia-induced neuronal cell death [6]: completely halted
- neuroprotection against glutamate insult (cultured neuronal cells; cells pretreated with 10 μM for 24 h): Nearly complete neuroprotection
- glutamate-induced excitatory cytotoxicity (cultured neuronal cells): prevents
